This note sets out measurements from patent US20260055088A1, “HETEROCYCLIC COMPOUND, METHOD FOR PREPARING SAME, AND PHARMACEUTICAL USE THEREOF” (Jiangsu Hengrui Pharmaceuticals Co., Ltd., priority 2022, published 2026).

Series [1] can be described thus: Pharmacokinetic evaluation in SD rats (i.g.). Type of series: in vivo. As to conditions: male, Sprague-Dawley (SD), rat, plasma, po, 2.0 mg/kg; for AUC(0-t): read-out: Area under curve AUC0-t; for CL/F: read-out: Clearance rate CL/F; for half-life: read-out: Half-life T½ (converted); for Cmax: read-out: Plasma concentration Cmax. How it is done: SD rats were used as test animals. After intragastric (i.g.) administration of the example compounds to SD rats, the plasma concentrations of the compounds at different time points were determined by the LC/MS/MS method. The pharmacokinetic behaviors of the compounds of the present disclosure in SD rats were studied, and their pharmacokinetic profiles were evaluated.
Compounds 16 and 32: Four male SD rats, provided by Vital River Laboratory Animal Technology Co., Ltd. The animals were fasted overnight and then intragastrically dosed.
Compound 38: Two male SD rats, provided by Zhejiang Vital River Laboratory Animal Technology Co., Ltd. The animals were fasted overnight and then intragastrically dosed.
Compounds 16 and 32: Certain amounts of the test compounds were weighed out, and 5% DMSO+5% tween 80+90% normal saline was added to prepare 0.2 mg/mL colorless clear solutions.
Compound 38: A certain amount of the test compound was weighed out, and 25% PEG400+75% (10% TPGS+1% HPMC K100LV) was added to prepare a 5 mg/mL colorless clear solution.
Compounds 16 and 32: The administration dose was 2 mg/kg, and the administration volume was 10.0 mL/kg.
Compound 38: The administration dose was 50 mg/kg, and the administration volume was 10.0 mL/kg.
0.2-mL blood samples were collected from the orbit before administration and 0.25, 0.5, 1.0, 2.0, 4.0, 6.0, 8.0, 11.0, and 24.0 h after administration, placed into EDTA-K2 anticoagulation test tubes, and centrifuged at 10,000 rpm for 1 min (4° C.), and the plasma was separated within 1 h and stored with dry ice before analysis. The procedures from the blood collection to the centrifugation were performed under ice-bath conditions. Access to food was given 2 h after administration.
Compounds 16 and 32: Determination of the plasma concentrations of the test compounds in SD rats after the compounds were administered at different concentrations: A 25-μL sample of the SD rat plasma collected at each time point after administration was taken, and 200 μL of acetonitrile containing an internal standard (verapamil, 100 ng/mL) was added. The mixture was vortexed and centrifuged at 3700 rpm for 10 min. 0.1 μL of the supernatant was taken for LC/MS/MS analysis.
Compound 38: Determination of the plasma concentration of the test compound in SD rats after the compound was administered at different concentrations: A 25-μL sample of the SD rat plasma collected at each time point after administration was taken, and 200 μL of acetonitrile containing an internal standard (dexamethasone, 100 ng/mL) was added. The mixture was vortexed and centrifuged at 4000 rpm for 15 min. 1 μL of the supernatant was taken for LC/MS/MS analysis.

The next series deals with rat incision pain model. The series is described as follows: Analgesic efficacy in rat incision pain model (mechanical pain threshold). Type of series: in vivo, SD rats. Conditions: i.g./one dose; for Pain threshold: rat incision pain model, 5 h after administration; for Percent increase in threshold: vs. vehicle control. How it is done:
To evaluate the analgesic efficacy of the compounds of the present disclosure in inhibiting pain in rats of a rat incision pain model.
The compounds of Example 16 and Example 32.
Test animals: SD rats, purchased from Beijing Vital River Laboratory Animal Technology Co., Ltd. (license number: SCXK (Zhejiang) 2019-0001), weighing about 180 g on purchase.
Housing conditions: 5 animals/cage, a 12/12-hour light/dark cycle, a constant temperature of 23±1° C. with humidity at 50 to 60%, ad libitum access to food and water.
After acclimatization, the SD rats were grouped as follows:
Nine SD rats, weighing 170-190 g, were selected for this study. The mechanical pain threshold was measured using an electronic aesthesiometer. Then an incision pain surgery was performed. During the surgery, after the rats were anesthetized with Zoletil (Zoletil-50, 250 mg, diluted with normal saline to 50 mL after being dissolved, injected at a dose of 2 mL per 200 g of body weight), a 1 cm long incision was made in the middle of the plantar surface of the left hind paw using a No. 10 scalpel blade, cutting through the skin and fascia, and the incision was closed using 3-0 sterile silk sutures. The injured area was disinfected with penicillin, and the animals were returned to their original place to recover overnight. After the overnight recovery, oral gavage administration was performed. Five hours after administration (about 24 h after surgery), the mechanical pain threshold was measured using an electronic aesthesiometer.
Data were recorded using Excel statistical software: The averages were calculated using avg; the SD values were calculated using STDEV; the SEM values were calculated using STDEV/SQRT (the number of animals per group). Plotting was performed using GraphPad Prism software. Statistical analysis of the data was performed using one-way ANOVA and t-test.
Percent increase in threshold (%)=[(Gt−G0)/G0]×100(%), where Gt is the plantar pain threshold of the administration group, and G0 is the plantar pain threshold of the vehicle group.

The structures appear in SMILES notation. Where “and” joins values, the source holds several entries; their conditions need not be identical. Equal values may be shown once.

Regarding `CO/N=C(\N)c1cc(NC(=O)[C@@H]2O[C@@](C)(C(F)(F)F)[C@@H](C)[C@H]2c2ccc(F)c(F)c2OC)ccn1` [Example 16], in series [1], the bioavailability (in general, dose-corrected exposure relative to a reference, in per cent) amounted to 51.3%; the AUC(0-t) is 329 ng·h/mL; the CL/F came to 101 mL/min/kg; the half-life (commonly the time needed for the level to fall by half in the phase considered) is 9.1 h. Besides, in series [1], the Cmax worked out at 120 ng/mL. Further, in the series on rat incision pain model (50 mpk), the Pain threshold was 10.8 gf and 10.8 ± 0.5 gf; the “Percent increase in threshold” value was 7%. Further, in the series on rat incision pain model (100 mpk), the Pain threshold is 14.9 gf and 14.9 ± 1.5 gf; the “Percent increase in threshold” value amounted to 49%. Moreover, in the series with rat incision pain model (200 mpk), the Pain threshold was 22.3 gf and 22.3 ± 1.8 gf; the “Percent increase in threshold” value was found to be 122%.

Regarding `COc1c([C@H]2[C@H](C(=O)Nc3ccnc(/C(N)=N/O)c3)O[C@@](C)(C(F)(F)F)[C@H]2C)ccc(F)c1F` [Example 32], in series [1], the bioavailability worked out at 24.7%, the AUC(0-t) is 321 ng·h/mL, the CL/F came out at 96.9 mL/min/kg and the half-life was 2.6 h. In addition, the Cmax in series [1] is 85.7 ng/mL. For the same compound, in the series on rat incision pain model (30 mpk), the Pain threshold was 12.0 gf and 12.0 ± 0.9 gf; the “Percent increase in threshold” value is 15%. Further, in the series on rat incision pain model (100 mpk), the Pain threshold was 22.3 gf and 22.3 ± 1.3 gf; the “Percent increase in threshold” value came out at 114%. Besides, in the series with rat incision pain model (200 mpk), the Pain threshold was 22.4 gf and 22.4 ± 2.5 gf; the “Percent increase in threshold” value is 114%.
